In patent US9346827B2, “5-amino-oxazepine and 5-amino-thiazepane compounds as beta secretase antagonists and methods of use” (Amgen Inc., priority 2011, dated 2016):

How the values were obtained:
[1] = tested on: Aβ40 in conditioned medium of cells expressing amyloid precursor protein; assay: In vitro BACE cell-based assay (HEK cell assay, Aβ40 sandwich ELISA); conditions: Homo sapiens, HEK293; average IC50; inhibition of Aβ40 after 24 h incubation
Procedure: In Vitro BACE Cell-Based Assay
The cell-based assay measures inhibition or reduction of Aβ40 in conditioned medium of test compound treated cells expressing amyloid precursor protein.
Cells stably expressing Amyloid Precursor Protein (APP) were plated at a density of 40K cells/well in 96 well plates (Costar). The cells were cultivated for 24 hours at 37° C. and 5% CO2 in DMEM supplemented with 10% FBS. The test compounds were then added to cells in 10-point dose response concentrations with the starting concentration being either 100 μM or 10 μM. The compounds were diluted from stock solutions in DMSO and the final DMSO concentration of the test compounds on cells was 0.1%. After 24 h of incubation with the test compounds the supernatant conditioned media was collected and the Aβ40 levels were determined using a sandwich ELISA. The IC50 of the compound was calculated from the percent of control or percent inhibition of Aβ40 as a function of the concentration of the test compound.
The sandwich ELISA to detect Aβ40 was performed in 96 well microtiter plates, which were pre-treated with goat anti-rabbit IgG (Pierce). The capture and detecting antibody pair that were used to detect Aβ40 from cell supernatants were affinity purified pAb40 (Biosource) and biotinylated 6E10 (Signet Labs Inc.), respectively. The optimal concentration for the pAb40 antibody was 3 μg/ml in Superblock/TBS (Pierce) that was supplemented with 0.05% Tween 20 (Sigma).
Cellular supernatants were incubated with the capture antibody for 3 h at 4° C., followed by 3 wash steps in TBS-tween (0.05%). The detecting antibody incubation was for 2 h at 4° C., again followed by the wash steps as described previously. The final readout of the ELISA is Time-Resolved Fluorescence (counts per minute) using Delfia reagents Streptavidin-Europium and Enhancement solutions (Perkin Elmer) and the Victor 2 multilabel counter (Perkin Elmer).

BACE 1 = BACE 1 (Homo sapiens (Human), UniProt P56817); assay: In vitro enzymatic BACE FRET assay; type: biochemical; conditions: average IC50; enzyme 0.2 nM, FRET substrate 50 nM, pH 4.2
Procedure: In Vitro Enzymatic BACE FRET (Fluorescence Resonance Energy Transfer) Assay
The assay buffer used in this screen is 0.05 M acetate, pH 4.2, 10% DMSO final, 100 uM genapol (which is a nonionic detergent, below its Critical Micelle Concentration). […] This assay is effectively started by the addition of FRET substrate (50 nM) and the combination is incubated for one hour. The FRET assay is terminated with by addition of Tris buffer, which raises the pH to neutrality, and the fluorescence is determined. The FRET substrate is a peptide with commercially available fluorophore and quencher, on opposite sides of the BACE cleavage site. Proteolytic cleavage of the FRET substrate releases quenching of fluorescence (excitation […] and […]).

Chain of BACE 1 (P56817 46-501, species assumed): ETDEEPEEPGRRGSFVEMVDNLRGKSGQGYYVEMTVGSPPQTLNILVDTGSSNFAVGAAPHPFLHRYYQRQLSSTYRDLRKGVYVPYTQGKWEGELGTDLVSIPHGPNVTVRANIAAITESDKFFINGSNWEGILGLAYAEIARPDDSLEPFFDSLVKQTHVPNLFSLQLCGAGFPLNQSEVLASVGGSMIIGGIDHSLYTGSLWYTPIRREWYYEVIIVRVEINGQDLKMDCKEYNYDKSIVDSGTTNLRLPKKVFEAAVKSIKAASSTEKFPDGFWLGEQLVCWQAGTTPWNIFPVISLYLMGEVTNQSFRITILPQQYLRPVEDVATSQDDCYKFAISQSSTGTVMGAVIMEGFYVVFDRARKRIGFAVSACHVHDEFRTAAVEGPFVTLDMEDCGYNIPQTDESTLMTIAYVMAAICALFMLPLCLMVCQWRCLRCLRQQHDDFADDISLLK

IC50 [1] [nM] | IC50 (BACE 1) [nM] | SMILES
6370 | 9230 | NC1=N[C@]2(COCC1)c1cc(Br)ccc1Oc1cnc(Cl)cc12 [Example 3A, (5R)-7-bromo-3-chloro-6′,7′-dihydrospiro-[chromeno[2,3-c]pyridine-5,3′-[1,4]oxazepin]-5′-amine]
7 | 0.5 | CC(C)(C)COc1cc(F)c2c(c1)[C@]1(COCCC(N)=N1)c1cc(-c3cccnc3F)ccc1O2 [Example 15, (3S)-2′-(2,2-dimethylpropoxy)-4′-fluoro-7′-(2-fluoro-3-pyridinyl)-6,7-dihydrospiro[1,4-oxazepine-3,9′-xanthen]-5-amine]
4 | 3 | NC1=N[C@@]2(CCOC1)c1cc(-c3cccnc3F)ccc1Oc1cnc(N3CCC(F)(F)C3)cc12 [Example 19, (S)-3-(3,3-difluoropyrrolidin-1-yl)-7-(2-fluoropyridin-3-yl)-6′,7′-dihydro-2′H-spiro[chromeno[2,3-c]pyridine-5,5′-[1,4]oxazepin]-3′-amine]
12 | 1 | CC(C)(C)COc1cc(F)c2c(c1)C1(COCCC(N)=N1)c1cc(-c3cccnc3F)ccc1O2 (racemic) [Example 4, (3R/S)-2′-(2,2-dimethylpropoxy)-4′-fluoro-7′-(2-fluoro-3-pyridinyl)-6,7-dihydrospiro[1,4-oxazepine-3,9′-xanthen]-5-amine]
3 | 1 | NC1=NC2(COCC1)c1cc(-c3cccnc3F)ccc1Oc1cnc(-c3ccnc(F)c3)cc12 (racemic) [Example 2, (5R/S)-7-(2-fluoro-3-pyridinyl)-3-(2-fluoro-4-pyridinyl)-6′,7′-dihydrospiro-[chromeno-[2,3-c]pyridine-5,3′-[1,4]oxazepin]-5′-amine]
1 | 0.5 | NC1=N[C@@]2(COCC1)c1cc(-c3cccnc3F)ccc1Oc1cnc(-c3ccnc(F)c3)cc12 [Example 14, (5S)-7-(2-fluoro-3-pyridinyl)-3-(2-fluoro-4-pyridinyl)-6′,7′-dihydrospiro[chromeno-[2,3-c]-pyridine-5,3′-[1,4]oxazepin]-5′-amine]
300 | 285 | CC(C)(C)COc1cc(F)c2c(c1)[C@@]1(COCCC(N)=N1)c1cc(-c3cccnc3F)ccc1O2 [Example 16, (3R)-2′-(2,2-dimethylpropoxy)-4′-fluoro-7′-(2-fluoro-3-pyridinyl)-6,7-dihydrospiro[1,4-oxazepine-3,9′-xanthen]-5-amine]
892 | 3830 | NC1=N[C@@]2(COCC1)c1cc(Br)ccc1Oc1cnc(Cl)cc12 [Example 3B, (5S)-7-bromo-3-chloro-6′,7′-dihydrospiro-[chromeno[2,3-c]-pyridine-5,3′-[1,4]oxazepin]-5′-amine]
689 | 369 | NC1=N[C@]2(CCOC1)c1cc(-c3cccnc3F)ccc1Oc1cnc(-c3ccnc(F)c3)cc12 [Example 17, (5R)-7-(2-fluoro-3-pyridinyl)-3-(2-fluoro-4-pyridinyl)-6′,7′-dihydro-2′H-spiro[chromeno[2,3-c]pyridine-5,5′-[1,4]oxazepin]-3′-amine]
78 | 139 | NC1=N[C@]2(COCC1)c1cc(-c3cccnc3F)ccc1Oc1cnc(-c3ccnc(F)c3)cc12 [Example 13, (5R)-7-(2-fluoro-3-pyridinyl)-3-(2-fluoro-4-pyridinyl)-6′,7′-dihydrospiro[chromeno-[2,3-c]-pyridine-5,3′-[1,4]oxazepin]-5′-amine]
